Reference: patent US8529915B2, “(R)-(-)-1,2-propanediol compositions and methods” (priority 2010, dated 2013)
Converted amounts (≈) assume the structure as drawn. “Also recorded” adds a separate entry of the source. Where two headings read alike, the source gives them in different places.

Assays:
[1] = system: rodents; details: oral; cited from earlier work
[2] = system: humans; details: based on intravenous infusion studies; cited from earlier work
[3] = system: philtrum skin; assay: philtrum skin cooling bioassay; format: in vivo, human; details: for cooling activity AUC in (R)-1,2-propanediol / cooling activity AUC in racemic-1,2-propanediol: ± S.E.M.; for cooling effect: applied to the philtrum
Excerpt: The term “alcoholic solvent” refers to a chemical with one to four carbons with at least one hydroxyl group attached to a carbon atom. A reliable place for topical application is the skin above the upper lip (above the vermilion border of the lips), on the philtrum, lateral to the philtrum until the nasolabial folds, and on the lower nostrils (subnasale). This part of the face is known to be densely innervated with cold receptors, second only to the surfaces of the eyeball and anogenitalia. Tingling, cool and cold sensations from the skin may be experienced and rated for time of onset and intensity.
The intervals for recording sensations are 5 to 10 minutes, until two successive zeroes are obtained. The results (shown in the Figures) are averaged values of 4 to 6 separate trials in the same individual. The data are plotted using SigmaPlot (Systat Software, Point Richmond Calif.) and a smoothing function with a negative exponential was used for analysis and statistical fit of the results. The onset of drug action is taken as the time to reach 2 units of coolness intensity, and offset of drug action is the time when coolness intensity drops below 2, after previously surpassing 2 units. The duration of cooling action is defined as the offset time minus the onset time and the primary index of effect. […]
Using a cotton-tipped applicator (e.g. Q-tips®) 0.10 to 0.25 ml of the test solution was applied to the skin above the upper lip, on the philtrum, and lateral to the philtrum up to the nasolabial folds, and the onset and duration of cooling sensations noted. […] The interval for recording sensations was at 5 to 10 minute intervals, until at least two successive zeroes were obtained. The results were averaged values of 3 to 6 separate trials in the same individual. The “onset” is the time taken to reach a coolness intensity value of 2. […] The “off-set” is when the coolness intensity drops below 2, and the duration is the time of off-set minus the time of onset. The area under the curve (AUC) also gives an estimate of the intensity and duration of drug action and can be obtained from the plotted data using SigmaPlot (Systat Software, Point Richmond Calif.). The AUC is given in average ±S.E.M. units which is the product of cooling intensity×min.

[4] = system: tongue; details: average for 6 subjects, filter paper on dorsal tongue, 30 seconds; cited from earlier work
[5] = solubility in solvents; format: physicochemical; details: organic solvent or mixture
Protocol: Many cooling agents are more soluble in ethanol than in 1,2-propanediol. For example, W-3 and CPS-369 are soluble in absolute ethanol at >300 mg/ml and >500 mg/ml, respectively. These compounds are less soluble in 1,2-propanediol, with solubilities of about 10 mg/ml at standard conditions. To formulate liquid compositions of cooling agents, it is convenient to use up to 5% of ethanol in the total volume to dissolve the cooling agent and then add the rest as (R)-1,2-propanediol to complete the formulation without significant loss of cooling actions.

[6] = system: itch (contact dermatitis) on the scalp; assay: scalp itch (contact dermatitis) case, topical application; format: in vivo, human; details: for sensations of coolness after application to scalp: 5 mg/ml in 1% ethanol-99% (R)-1,2-propanediol, droplet delivery; for itch after two days of applications: applications spaced approximately 10 hours apart, scalp
Protocol: An individual developed intense itch (contact dermatitis) on the scalp at the base of the skull after use of hair dye. A cotton-tipped stick was used to apply CPS-410 or CPS-412, 5 mg/ml dissolved in a 1% ethanol-99% (R)-1,2-propanediol, to the site of itch. The itch sensations were suppressed within 5 min of application of either solution and this effect lasted for at least 8 hr. In a second experiment, the solutions were applied using a plastic bottle with a conical Yorker spout. This allowed more precise droplet delivery of the solution to the site of itch. […] The advantage of liquid formulation is the ease of uniform delivery to the inflamed site, a method not achievable with cream or ointment. Itch symptoms of hair and fur occur in seborrheic dermatitis, psoriasis, insect bites, canine pruritus, and allergic dermatitis. Liquid formulations containing (R)-1,2-propanediol and a cooling agent may be therapeutically valuable in these conditions.

[7] = molecular target: TRP-M8 receptor (Homo sapiens, UniProt Q7Z2W7); details: cited from earlier work
Chain of TRP-M8 receptor (Q7Z2W7 whole entry): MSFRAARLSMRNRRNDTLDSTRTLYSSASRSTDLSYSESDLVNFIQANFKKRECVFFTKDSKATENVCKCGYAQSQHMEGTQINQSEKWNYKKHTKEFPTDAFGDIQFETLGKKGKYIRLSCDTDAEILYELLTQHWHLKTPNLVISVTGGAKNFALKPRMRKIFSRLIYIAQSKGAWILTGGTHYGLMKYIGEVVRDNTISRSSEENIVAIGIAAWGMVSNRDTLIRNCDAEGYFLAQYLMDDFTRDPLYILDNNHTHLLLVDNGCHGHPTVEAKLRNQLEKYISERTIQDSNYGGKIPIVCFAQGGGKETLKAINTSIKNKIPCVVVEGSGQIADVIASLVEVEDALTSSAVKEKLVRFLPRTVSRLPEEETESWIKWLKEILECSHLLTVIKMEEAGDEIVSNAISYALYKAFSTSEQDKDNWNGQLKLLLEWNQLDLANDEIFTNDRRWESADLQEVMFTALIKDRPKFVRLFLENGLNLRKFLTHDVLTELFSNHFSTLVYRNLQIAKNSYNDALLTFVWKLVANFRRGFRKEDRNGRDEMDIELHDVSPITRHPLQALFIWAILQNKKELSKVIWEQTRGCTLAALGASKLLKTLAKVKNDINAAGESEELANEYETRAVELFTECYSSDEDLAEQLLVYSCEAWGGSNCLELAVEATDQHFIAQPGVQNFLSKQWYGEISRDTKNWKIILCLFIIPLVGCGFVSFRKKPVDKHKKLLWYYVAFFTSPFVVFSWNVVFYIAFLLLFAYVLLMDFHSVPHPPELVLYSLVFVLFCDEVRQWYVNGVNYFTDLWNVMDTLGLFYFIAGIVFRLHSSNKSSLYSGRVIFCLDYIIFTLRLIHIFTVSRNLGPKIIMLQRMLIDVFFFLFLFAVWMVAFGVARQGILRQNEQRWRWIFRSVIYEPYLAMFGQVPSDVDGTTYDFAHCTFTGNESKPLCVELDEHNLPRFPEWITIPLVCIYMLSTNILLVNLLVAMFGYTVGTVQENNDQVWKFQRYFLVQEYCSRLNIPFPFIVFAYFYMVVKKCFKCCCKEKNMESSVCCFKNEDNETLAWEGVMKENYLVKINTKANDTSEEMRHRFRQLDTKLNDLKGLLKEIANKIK

[8] = system: axillary skin lesion of plaque psoriasis; assay: plaque psoriasis case, axillary skin lesion itch and burning; format: in vivo, human; details: same patient, subsequent treatment
Excerpt: A person with an 8-year history of plaque psoriasis complained of an axillary skin lesion that itched, had burning sensations, and kept them awake at night. Their condition was severe and chronic. Their parent complained that they had to vacuum their bedroom every day in order to remove flaking skin debris. […] They volunteered to try CPS-148, 2% dissolved in 1% ethanol-99% (R)-1,2-propanediol, and was given instructions on how to apply the solution to their site of itch with a swab stick (Q-tip™). They claimed after the first time of application at night the burning sensations and itch disappeared within 5 to 10 min and they were able to have a good night's sleep. They continued to use the solution on an “as-needed basis” for one month and claimed that they slept much better than before.

[9] = CPS-369 at 10 mg/ml dissolved in the named solvent, applied to philtrum skin, based on AUC, inactive = coolness intensity did not exceed 2 units
[10] = 5 mg/ml, (R)-1,2-propanediol with 1% ethanol vol/vol, philtrum
[11] = 5 mg/ml, racemic 1,2-propanediol with 1% ethanol vol/vol, philtrum
[12] = absolute ethanol, read-out: solubility in absolute ethanol
[13] = 1,2-propanediol, standard conditions, read-out: solubility in 1,2-propanediol

With CC(O)CO (racemic) [racemic 1,2-propanediol, 1,2-propanediol] as the compound, how does the median lethal dose [1] read?
The median lethal dose was “about 25 ml/kg of body weight”.

And the “estimated “safe” dose” value [2]?
Its value is 1 g per kg body weight per day.

With CC(O)CCO (racemic) [racemic 1,3-butanediol, 1,3-butanediol] as the compound, how does the “Cooling Activity % (relative to (R)-1,2-propanediol)” value [3, 9] read?
Its value is 10%.

What about the “Cooling Activity % (relative to (R)-1,2-propanediol)” value ([3]; in vivo) of the same compound?
The value was “significant loss of cooling activity”.

With CC1CCC(C(C)C)C(O)C1 (single isomer, unassigned; (-)) [(−)-menthol] as the compound, how does the “Threshold (amount producing cooling sensations on the tongue), average” value [4] read?
Its value is 0.25 µg.

For OCCCO [1,3-propanediol], which “Cooling Activity % (relative to (R)-1,2-propanediol)” value [3, 9] is on record?
The value was “significant loss of cooling activity; also recorded: inactive”.

Which “Cooling Activity % (relative to (R)-1,2-propanediol)” value [3, 9] does the source give for C[C@H](O)CO [(S)-1,2-propanediol] here?
Its value is 47%.

What does the source list for CCCCCCP(=O)(C(C)CC)C(C)CC (stereo not drawn) [CPS-147, 1-(Di-sec-butyl-phosphinoyl)-hexane]?
cooling activity AUC in (R)-1,2-propanediol ([3]; 3 mg/ml, (R)-1,2-propanediol with 2% ethanol vol/vol, philtrum): 81 ± 4 cooling intensity × min; cooling activity AUC in racemic-1,2-propanediol ([3]; 3 mg/ml, racemic 1,2-propanediol with 2% ethanol vol/vol, philtrum): 64 ± 4 cooling intensity × min

For CCCCCCCP(=O)(C(C)CC)C(C)CC (stereo not drawn) [CPS-148, 1-(Di-sec-butyl-phosphinoyl)-heptane], which “cooling activity AUC in (R)-1,2-propanediol” value ([3]; 2 mg/ml, (R)-1,2-propanediol with 1% ethanol vol/vol, philtrum) is on record?
The value was 173 ± 15 cooling intensity × min.

And the “cooling activity AUC in racemic-1,2-propanediol” value ([3]; 2 mg/ml, racemic 1,2-propanediol with 1% ethanol vol/vol, philtrum)?
Its value is 75 ± 6 cooling intensity × min.

With CCOC(=O)[C@@H](C)NC(=O)[C@@H]1C[C@H](C)CC[C@H]1C(C)C [CPS-369, (R)-2-[((1R,2S,5R)-2-isopropyl-5-methyl-cyclohexanecarbonyl)-amino]-propionic acid ethyl ester] as the compound, how does the “cooling activity AUC in (R)-1,2-propanediol” value [3, 10] read?
The value was 218 ± 12 cooling intensity × min.

And the “cooling activity AUC in racemic-1,2-propanediol” value [3, 11]?
The value was 134 ± 16 cooling intensity × min.

And the solubility [5, 12]?
The solubility was greater than 500000 µg/mL.

And the solubility [5, 13]?
The solubility was roughly 10000 µg/mL (≈ 35.3 mM).

For CCCOC(=O)[C@@H](C)NC(=O)[C@@H]1C[C@H](C)CC[C@H]1C(C)C [CPS-410, (R)-2-[((1R,2S,5R)-2-isopropyl-5-methyl-cyclohexanecarbonyl)-amino]-propionic acid n-propyl ester], which “sensations of coolness after application to scalp” value [6] is on record?
Its value is “produced sensations of coolness”.

And the “itch after two days of applications” value [6]?
Its value is “no longer present”.

And the “cooling activity AUC in (R)-1,2-propanediol” value [3, 10]?
The value was 281 ± 7 cooling intensity × min.

What about the “cooling activity AUC in racemic-1,2-propanediol” value [3, 11] of the same compound?
The value was 122 ± 12 cooling intensity × min.

For CCCCOC(=O)[C@@H](C)NC(=O)[C@@H]1C[C@H](C)CC[C@H]1C(C)C [CPS-412, (R)-2-[((1R,2S,5R)-2-isopropyl-5-methyl-cyclohexanecarbonyl)-amino]-propionic acid n-butyl ester], which “sensations of coolness after application to scalp” value [6] is on record?
The value was “less noticeable”.

And the “itch after two days of applications” value [6]?
The value was “no longer present”.

What about the “cooling activity AUC in (R)-1,2-propanediol” value [3, 10] of the same compound?
Its value is 243 ± 5 cooling intensity × min.

And the “cooling activity AUC in racemic-1,2-propanediol” value [3, 11]?
Its value is 127 ± 10 cooling intensity × min.

Which “in vitro inhibition of TRP-M8 response relative to alcohols” value ([7]; Benedikt et al. 2007) does the source give for C[S+](C)[O-] [Dimethylsulfoxide] here?
The value was “less inhibitory”.

Which cooling effect ([3]; 20 mg/ml in absolute ethanol) does the source give for CCNC(=O)C1CC(C)CCC1C(C)C (stereo not drawn) [WS-3, 2-Isopropyl-5-methyl-cyclohexanecarboxylic acid ethylamide] here?
Its cooling effect is “did not produce significant cooling”.

And the “cooling activity AUC in (R)-1,2-propanediol” value ([3]; 20 mg/ml, (R)-1,2-propanediol with 3% ethanol vol/vol, philtrum)?
Its value is 122 ± 8 cooling intensity × min.

What about the “cooling activity AUC in racemic-1,2-propanediol” value ([3]; 20 mg/ml, racemic 1,2-propanediol with 3% ethanol vol/vol, philtrum) of the same compound?
Its value is 64 ± 6 cooling intensity × min.

What about the solubility [5, 12] of the same compound?
The solubility was greater than 300000 µg/mL.

And the solubility [5, 13]?
The solubility was roughly 10000 µg/mL (≈ 47.3 mM).

Which cooling effect ([3]; 10 mg/ml in 100% ethanol) does the source give for CCOC(=O)CNC(=O)[C@@H]1C[C@H](C)CC[C@H]1C(C)C [WS-5, [((1R,2S,5R)-2-isopropyl-5-methyl-cyclohexanecarbonyl)-amino]-acetic acid ethyl ester] here?
Its cooling effect is “did not produce any cooling effect”.

For CCO [ethanol], which “Cooling Activity % (relative to (R)-1,2-propanediol)” value [3, 9] is on record?
Its value is “loss of cooling activity; also recorded: inactive”.

And the “TRP-M8 receptor response to (−)-menthol” value ([7]; 3% concentration of ethanol)?
The value was “almost totally lost”.

For CC(C)O [isopropanol], which “Cooling Activity % (relative to (R)-1,2-propanediol)” value [3, 9] is on record?
Its value is “loss of cooling activity; also recorded: inactive”.

For (R)-1,2-propanediol, which “reversal of ethanol inhibition of WS-5 cooling” value ([3]; added at 10%, 20% and 40% vol/vol to ethanolic solution of WS-5 10 mg/ml, philtrum) is on record?
The value was “reversed the ethanol inhibition in a dose-dependent relationship”.

Which “psoriatic condition after a course of treatment” value [8] does the source give for Enbrel® here?
The value was “improved considerably”.

With n-propanol as the compound, how does the “Cooling Activity % (relative to (R)-1,2-propanediol)” value [3, 9] read?
The value was “loss of cooling activity; also recorded: inactive”.
